{"source": "PubChem BioAssay AID1259409", "about": "(Chemical Carcinogenesis Research Information System (CCRIS), 2018)", "origin": "cited, not measured here", "tested_on": "rodent chemically induced tumor inhibition, incidence and multiplicity", "assay": "CCRIS tumor inhibitor studies", "data": [{"smiles": "O=C1O[C@H]([C@@H](O)CO)C(O)=C1O", "values": [{"measurement": "tumour outcome (control, treated, inhibition, significance)", "setting": "Carcinogen: DIETHYLNITROSAMINE, 55-18-5, Dose [Inhibitor]: 0, 15 G/L IN DRINKING WATER FOR DURATION OF STUDY BEGINNING 1 D PRIOR TO FIRST CARCINOGEN DOSE (STUDY DURATION: 6 MO), Route [Inhibitor]: ORAL, Species: RAT, Strain/Sex: BD6/FEMALE, Target Tissue: Type of Lesion: ESOPHAGUS: TUMOR, Dose [Carcinogen]: 80 MG/KG BW 1/WK FOR 10 WK, Promoter: NONE USED", "value": "35%, 24%, 31%, not significant"}, {"measurement": "tumour outcome (control, treated, inhibition, significance)", "setting": "Carcinogen: DIETHYLNITROSAMINE, 55-18-5, Dose [Inhibitor]: 0, 15 G/L IN DRINKING WATER FOR DURATION OF STUDY BEGINNING 1 D PRIOR TO FIRST CARCINOGEN DOSE (STUDY DURATION: 6 MO), Route [Inhibitor]: ORAL, Species: RAT, Strain/Sex: BD6/FEMALE, Target Tissue: Type of Lesion: LIVER: TUMOR, Dose [Carcinogen]: 80 MG/KG BW 1/WK FOR 10 WK, Promoter: NONE USED", "value": "100%, 92%, 8%, not significant"}, {"measurement": "tumour outcome (control, treated, inhibition, significance)", "setting": "Carcinogen: DIETHYLNITROSAMINE, 55-18-5, Dose [Inhibitor]: 0, 15 G/L IN DRINKING WATER FOR DURATION OF STUDY BEGINNING 2 D POST CARCINOGEN TREATMENT (STUDY DURATION: 6 MO), Route [Inhibitor]: ORAL, Species: RAT, Strain/Sex: BD6/FEMALE, Target Tissue: Type of Lesion: ESOPHAGUS: TUMOR, Dose [Carcinogen]: 80 MG/KG BW 1/WK FOR 10 WK, Promoter: NONE USED", "value": "35%, 28%, 20%, not significant"}, {"measurement": "tumour outcome (control, treated, inhibition, significance)", "setting": "Carcinogen: DIETHYLNITROSAMINE, 55-18-5, Dose [Inhibitor]: 0, 15 G/L IN DRINKING WATER FOR DURATION OF STUDY BEGINNING 2 D POST CARCINOGEN TREATMENT (STUDY DURATION: 6 MO), Route [Inhibitor]: ORAL, Species: RAT, Strain/Sex: BD6/FEMALE, Target Tissue: Type of Lesion: LIVER: TUMOR, Dose [Carcinogen]: 80 MG/KG BW 1/WK FOR 10 WK, Promoter: NONE USED", "value": "100%, 100%, 0%, not significant"}, {"measurement": "tumour outcome (control, treated, inhibition, significance)", "setting": "Carcinogen: DIETHYLSTILBESTROL, 56-53-1, Dose [Inhibitor]: 1 G/KG OR 2.5 G/KG OF DIET BEGINNING 2 D PRIOR TO FIRST CARCINOGEN IMPLANT AND CONTINUING FOR DURATION OF STUDY (STUDY D, Route [Inhibitor]: ORAL, Species: HAMSTER, Strain/Sex: SYRIAN/MALE, Target Tissue: Type of Lesion: KIDNEY: CARCINOMA, Dose [Carcinogen]: 90% OF 40 MG PELLET (OTHER 10% CHOLESTEROL) 2 D AFTER START OF AGENT TREATMENT AND AGAIN 3 MO LATER, Promoter: NONE USED", "value": "11/13 (85%), 14/29 (48%), 44%, p<0.05"}, {"measurement": "tumour outcome (control, treated, inhibition, significance)", "setting": "Carcinogen: DIETHYNITROSAMINE, 55-18-5, Dose [Inhibitor]: 0, 3 G/L IN DRINKING WATER FOR DURATION OF STUDY BEGINNING 2 D POST CARCINOGEN TREATMENT (STUDY DURATION: 6 MO), Route [Inhibitor]: ORAL, Species: RAT, Strain/Sex: BD6/FEMALE, Target Tissue: Type of Lesion: LIVER: TUMOR, Dose [Carcinogen]: 80 MG/KG BW 1/WK FOR 10 WK, Promoter: NONE USED", "value": "100%, 100%, 0%, not significant"}, {"measurement": "tumour outcome (control, treated, inhibition, significance)", "setting": "Carcinogen: ETHYLUREA, 625-52-5, SODIUM NITRITE, 7632-00-0, Carcinogen: ETHYLUREA, 625-52-5, SODIUM NITRITE, 7632-00-0, Dose [Inhibitor]: 200 MG/KG BW ADMINISTERED INTRAGASTRICALLY ONCE ON D 15 OF GESTATION SIMULTANEOUSLY WITH CARCINOGEN TREATMENT (STUDY DUR, Route [Inhibitor]: TRANSPLACENTAL, Species: HAMSTER, Strain/Sex: SYRIAN/FEMALE, Target Tissue: Type of Lesion: PERIPHERAL NERVOUS SYSTEM: NEOPLASM, Dose [Carcinogen]: 200 MG ETHYLUREA/KG BW AND 100 MG SODIUM NITRITE/KG BW IG ONCE, Promoter: NONE USED", "value": "9/18 (50%), 0/18 (0%), 100%, not calculated"}, {"measurement": "tumour outcome (control, treated, inhibition, significance)", "setting": "Carcinogen: ETHYLUREA, 625-52-5, SODIUM NITRITE, 7632-00-0, Carcinogen: ETHYLUREA, 625-52-5, SODIUM NITRITE, 7632-00-0, Dose [Inhibitor]: 200 MG/KG BW ADMINISTERED INTRAGASTRICALLY ONCE ON D 15 OF GESTATION SIMULTANEOUSLY WITH CARCINOGEN TREATMENT (STUDY DUR, Route [Inhibitor]: TRANSPLACENTAL, Species: HAMSTER, Strain/Sex: SYRIAN/MALE, Target Tissue: Type of Lesion: PERIPHERAL NERVOUS SYSTEM: NEOPLASM, Dose [Carcinogen]: 200 MG ETHYLUREA/KG BW AND 100 MG SODIUM NITRITE/KG BW IG ONCE, Promoter: NONE USED", "value": "6/18 (33%), 0/24 (0%), 100%, not calculated"}, {"measurement": "tumour outcome (control, treated, inhibition, significance)", "setting": "Carcinogen: FIBERGLASS DUST, Dose [Inhibitor]: 400 MG/KG BW 1/3 D FOR 10 TREATMENTS STARTING 3 D POST CARCINOGEN TREATMENT (STUDY DURATION: 90 D), Route [Inhibitor]: INTRAPERITONEAL, Species: MOUSE, Strain/Sex: STRAIN-A/MALE, Target Tissue: Type of Lesion: LUNG: TUMOR, Dose [Carcinogen]: 300 MG IN 100 G OF STERILIZED PINE SAWDUST BEDDING FOR 30 D, Promoter: NONE USED", "value": "6/12 (50%), 1/12 (8%), 84%, not calculated"}, {"measurement": "tumour outcome (control, treated, inhibition, significance)", "setting": "Carcinogen: N,N-DIETHYLNITROSAMINE, 55-18-5, Dose [Inhibitor]: 4.5 MG/100 KG DIET FOR 58 WK STARTING SIMULTANEOUSLY WITH CARCINOGEN AND PROMOTER TREATMENT AND CONTINUING FOR DURATION, Route [Inhibitor]: ORAL, Species: HAMSTER, Strain/Sex: SYRIAN/MALE, Target Tissue: Type of Lesion: LARYNX: TUMORS, Dose [Carcinogen]: 10 MG (TOTAL DOSE) IN 0.9% SALINE 1/WK FOR 12 WK, Promoter: CIGARETTE SMOKE", "value": "20/30 (67%), 17/30 (57%), 15%, not significant"}, {"measurement": "tumour outcome (control, treated, inhibition, significance)", "setting": "Carcinogen: N,N-DIETHYLNITROSAMINE, 55-18-5, Dose [Inhibitor]: 4.5 MG/100 KG DIET FOR 58 WK STARTING SIMULTANEOUSLY WITH CARCINOGEN AND PROMOTER TREATMENT AND CONTINUING FOR DURATION, Route [Inhibitor]: ORAL, Species: HAMSTER, Strain/Sex: SYRIAN/MALE, Target Tissue: Type of Lesion: NASAL CAVITY: TUMORS, Dose [Carcinogen]: 10 MG (TOTAL DOSE) IN 0.9% SALINE 1/WK FOR 12 WK, Promoter: CIGARETTE SMOKE", "value": "14/29 (48%), 8/30 (27%), 44%, not significant"}, {"measurement": "tumour outcome (control, treated, inhibition, significance)", "setting": "Carcinogen: N,N-DIETHYLNITROSAMINE, 55-18-5, Dose [Inhibitor]: 4.5 MG/100 KG DIET FOR 58 WK STARTING SIMULTANEOUSLY WITH CARCINOGEN AND PROMOTER TREATMENT AND CONTINUING FOR DURATION, Route [Inhibitor]: ORAL, Species: HAMSTER, Strain/Sex: SYRIAN/MALE, Target Tissue: Type of Lesion: TRACHEA: TUMORS, Dose [Carcinogen]: 10 MG (TOTAL DOSE) IN 0.9% SALINE 1/WK FOR 12 WK, Promoter: CIGARETTE SMOKE", "value": "30/30 (100%), 29/30 (97%), 3%, not significant"}, {"measurement": "tumour outcome (control, treated, inhibition, significance)", "setting": "Carcinogen: N-(4-(5-NITRO-2-FURYL)-2-THIAZOLYL)FORMAMIDE, 24554-26-5, Dose [Inhibitor]: 250 MG/100 CC DRINKING WATER STARTING SIMULTANEOUSLY WITH CARCINOGEN TREATMENT AND CONTINUING FOR DURATION OF STUDY (STU, Route [Inhibitor]: ORAL, Species: MOUSE, Strain/Sex: C3H/FEMALE, Target Tissue: Type of Lesion: URINARY BLADDER: TRANSITIONAL CELL CARCINOMA, Dose [Carcinogen]: 0.1% IN DIET FOR DURATION OF STUDY, Promoter: NONE USED", "value": "41/41 (100%), 12/13 (92%), 8%, p<0.7"}]}]}
